In PubChem BioAssay (NCI):
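Each compound was tested at five concentrations against cells in 96-well plates for 48 hours. GI50 is the concentration that inhibits growth by half. The concentration for full growth arrest is given as TGI.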

Assays:
Assay in all cases: DTP human tumour cell line panel, 48 h
[1] = system: 786-0 renal
[2] = system: A498 renal
[3] = system: A549 NSCLC
[4] = system: ACHN renal
[5] = system: BT-549 breast
[6] = system: CAKI-1 renal
[7] = system: CCRF-CEM leukemia
[8] = system: COLO 205 colon
[9] = system: DU-145 prostate
[10] = system: HCC-2998 colon
[11] = system: HCT-116 colon
[12] = system: HCT-15 colon
[13] = system: HL-60(TB) leukemia
[14] = system: HOP-62 NSCLC
[15] = system: HOP-92 NSCLC
[16] = system: HS 578T breast
[17] = system: HT29 colon
[18] = system: IGROV1 ovarian
[19] = system: KM12 colon
[20] = system: LOX IMVI melanoma
[21] = system: MALME-3M melanoma
[22] = system: MCF7 breast
[23] = system: MDA-MB-231 breast
[24] = system: MDA-MB-435
[25] = system: MOLT-4 leukemia
[26] = system: NCI-H226 lung
[27] = system: NCI-H23 lung
[28] = system: NCI-H460 lung
[29] = system: NCI-H522 lung
[30] = system: NCI/ADR-RES ovarian
[31] = system: OVCAR-3 ovarian
[32] = system: OVCAR-4 ovarian
[33] = system: OVCAR-5 ovarian
[34] = system: OVCAR-8 ovarian
[35] = system: PC-3 prostate
[36] = system: RPMI-8226 leukemia
[37] = system: RXF 393 renal
[38] = system: SF-268 CNS
[39] = system: SF-295 CNS
[40] = system: SF-539 CNS
[41] = system: SK-MEL-2 melanoma
[42] = system: SK-MEL-28 melanoma
[43] = system: SK-MEL-5 melanoma
[44] = system: SK-OV-3 ovarian
[45] = system: SN12C renal
[46] = system: SNB-19 CNS
[47] = system: SNB-75 CNS
[48] = system: SW-620 colon
[49] = system: T-47D breast
[50] = system: TK-10 renal
[51] = system: U251 CNS
[52] = system: UACC-257 melanoma
[53] = system: UACC-62 melanoma
[54] = system: UO-31 renal
[55] = system: K-562 leukemia
[56] = system: M14 melanoma
[57] = system: SR leukemia

COc1cc(C(=O)O/N=C(\N)Cc2cccc3ccccc23)cc(OC)c1OC
GI50 [1]: 13.5 µM | TGI [1]: 26.7 µM | GI50 [2]: 5.79 µM | TGI [2]: 60.7 µM | GI50 [3]: 7.67 µM | TGI [3]: 23.8 µM | GI50 [4]: 7.11 µM | TGI [4]: 20.3 µM | GI50 [5]: 14.6 µM | TGI [5]: 29.7 µM | GI50 [6]: 5.91 µM | TGI [6]: 19.5 µM | GI50 [7]: 3.62 µM | TGI [7]: 23.3 µM | GI50 [8]: 12.2 µM | TGI [8]: 28.1 µM | GI50 [9]: 11.4 µM | TGI [9]: 23.7 µM | GI50 [10]: 17.2 µM | TGI [10]: 34.3 µM | GI50 [11]: 3.13 µM | TGI [11]: 13 µM | GI50 [12]: 6.41 µM | TGI [12]: 21.4 µM | GI50 [13]: 5.35 µM | TGI [13]: 36.5 µM | GI50 [14]: 4.42 µM | TGI [14]: 18.7 µM | GI50 [15]: 4.59 µM | TGI [15]: 17 µM | GI50 [16]: 6.64 µM | TGI [16]: 41.4 µM | GI50 [17]: 15.7 µM | TGI [17]: 38.3 µM | GI50 [18]: 3.61 µM | TGI [18]: 12.1 µM | GI50 [19]: 9.12 µM | TGI [19]: 22.1 µM | GI50 [20]: 3.41 µM | TGI [20]: 16.9 µM | GI50 [21]: 8.4 µM | TGI [21]: 21.9 µM | GI50 [22]: 2.57 µM | TGI [22]: 8.81 µM | GI50 [23]: 4.12 µM | TGI [23]: 18 µM | GI50 [24]: 2.4 µM | TGI [24]: 6.42 µM | GI50 [25]: 4.53 µM | TGI [25]: 29.4 µM | GI50 [26]: 16.9 µM | TGI [26]: 42.5 µM | GI50 [27]: 11.4 µM | TGI [27]: 29.8 µM | GI50 [28]: 2.78 µM | TGI [28]: 7.81 µM | GI50 [29]: 1.87 µM | TGI [29]: 3.7 µM | GI50 [30]: 7.02 µM | TGI [30]: 59.2 µM | GI50 [31]: 9.62 µM | TGI [31]: 23.3 µM | GI50 [32]: 10.6 µM | TGI [32]: 26 µM | GI50 [33]: 13 µM | TGI [33]: 26.5 µM | GI50 [34]: 11.5 µM | TGI [34]: 43.8 µM | GI50 [35]: 6.02 µM | TGI [35]: 20.6 µM | GI50 [36]: 3.02 µM | TGI [36]: 12.6 µM | GI50 [37]: 10.7 µM | TGI [37]: 23.9 µM | GI50 [38]: 7.55 µM | TGI [38]: 22.9 µM | GI50 [39]: 3.49 µM | TGI [39]: 13.7 µM | GI50 [40]: 2.97 µM | TGI [40]: 10.4 µM | GI50 [41]: 14.9 µM | TGI [41]: 29.4 µM | GI50 [42]: 12.4 µM | TGI [42]: 26.2 µM | GI50 [43]: 2.05 µM | TGI [43]: 4.71 µM | GI50 [44]: 16.5 µM | TGI [44]: 30.6 µM | GI50 [45]: 17.4 µM | TGI [45]: 42.3 µM | GI50 [46]: 8.86 µM | TGI [46]: 21.6 µM | GI50 [47]: 2.8 µM | TGI [47]: 15.6 µM | GI50 [48]: 11.7 µM | TGI [48]: 27.8 µM | GI50 [49]: 2.95 µM | TGI [49]: 12.5 µM | GI50 [50]: 20.7 µM | TGI [50]: 35.2 µM | GI50 [51]: 12 µM | TGI [51]: 25.8 µM | GI50 [52]: 15.2 µM | TGI [52]: 29.2 µM | GI50 [53]: 2.49 µM | TGI [53]: 6.73 µM | GI50 [54]: 5.26 µM | TGI [54]: 19.6 µM

COc1ccc(C(=O)/C=C/c2cc(-c3ccc4c(c3)OCO4)n[nH]2)cc1OC
GI50 [1]: 3.12 µM | TGI [1]: 11.4 µM | GI50 [2]: 1.55 µM | TGI [2]: 4.23 µM | GI50 [3]: 2.7 µM | TGI [3]: 15.8 µM | GI50 [4]: 3.49 µM | TGI [4]: 56.5 µM | GI50 [5]: 1.97 µM | TGI [5]: 4.21 µM | GI50 [6]: 1.9 µM | TGI [6]: 4.33 µM | GI50 [7]: 2.52 µM | TGI [7]: 9.58 µM | GI50 [8]: 3.84 µM | TGI [8]: 14 µM | GI50 [9]: 1.87 µM | TGI [9]: 4.27 µM | GI50 [10]: 4.99 µM | TGI [10]: 17.3 µM | GI50 [11]: 2.43 µM | TGI [11]: 7.99 µM | GI50 [12]: 2.81 µM | TGI [12]: > 100 µM | GI50 [13]: 2.82 µM | TGI [13]: 11.8 µM | GI50 [14]: 2.08 µM | TGI [14]: 5.6 µM | GI50 [15]: 2.16 µM | TGI [15]: 8.11 µM | GI50 [16]: 2.69 µM | TGI [16]: 8.21 µM | GI50 [17]: 2.98 µM | TGI [17]: 11.3 µM | GI50 [18]: 2.79 µM | TGI [18]: 9.2 µM | GI50 [55]: 2.47 µM | TGI [55]: 16.7 µM | GI50 [19]: 2.86 µM | TGI [19]: 9.48 µM | GI50 [20]: 1.97 µM | TGI [20]: 4.08 µM | GI50 [56]: 6.36 µM | TGI [56]: 21.4 µM | GI50 [21]: 7.32 µM | TGI [21]: 22.8 µM | GI50 [22]: 3.27 µM | TGI [22]: 16.8 µM | GI50 [23]: 2.44 µM | TGI [23]: 7.39 µM | GI50 [24]: 3.03 µM | TGI [24]: 10 µM | GI50 [25]: 3 µM | TGI [25]: 10.3 µM | GI50 [26]: 3.4 µM | TGI [26]: 11.2 µM | GI50 [27]: 4.12 µM | TGI [27]: 19.6 µM | GI50 [28]: 1.81 µM | TGI [28]: 4.05 µM | GI50 [29]: 1.82 µM | TGI [29]: 4.44 µM | GI50 [31]: 2.02 µM | TGI [31]: 4.61 µM | GI50 [32]: 2.11 µM | TGI [32]: 40.3 µM | GI50 [33]: 3.36 µM | TGI [33]: 23.2 µM | GI50 [34]: 2.15 µM | TGI [34]: 5.82 µM | GI50 [35]: 2.58 µM | TGI [35]: 18.2 µM | GI50 [36]: 1.03 µM | TGI [36]: 5.24 µM | GI50 [37]: 2.42 µM | TGI [37]: 5.39 µM | GI50 [38]: 2.53 µM | TGI [38]: 7.61 µM | GI50 [39]: 2.51 µM | TGI [39]: 6.15 µM | GI50 [40]: 1.91 µM | TGI [40]: 4.47 µM | GI50 [41]: 6.93 µM | TGI [41]: 23.2 µM | GI50 [42]: 5.76 µM | TGI [42]: 19.3 µM | GI50 [43]: 6.74 µM | TGI [43]: 19.9 µM | GI50 [44]: 3.97 µM | TGI [44]: 26.4 µM | GI50 [45]: 3.25 µM | TGI [45]: 13.6 µM | GI50 [46]: 3.2 µM | TGI [46]: 15.2 µM | GI50 [47]: 1.98 µM | TGI [47]: 7.57 µM | GI50 [57]: 1.27 µM | TGI [57]: 6.48 µM | GI50 [48]: 2.05 µM | TGI [48]: 4.81 µM | GI50 [49]: 3.23 µM | TGI [49]: 26.1 µM | GI50 [50]: 2.88 µM | TGI [50]: 8.97 µM | GI50 [51]: 1.58 µM | TGI [51]: 5.37 µM | GI50 [52]: 7.06 µM | TGI [52]: 22.1 µM | GI50 [53]: 4.1 µM | TGI [53]: 14.8 µM | GI50 [54]: 2.32 µM | TGI [54]: 10.1 µM
